# Data taken from patent publication US20220313774A1, “INTRANASAL ADMINISTRATION OF MEROTOCIN FOR IMPROVING LACTATION” (FERRING B.V., priority 2019, published 2022).
# *1 amine or outer side, *2 acyl side, *3 side chain or, on linkers, in order; H or OH if unused. Where a SMILES comes first, the peptide text is derived from it. Bridges are numbered along the chain shown (N, C = ends). [ ]: non-standard residue; d: D form. N(4-F-Bzl)Gly = O=C(O)CNCc1ccc(F)cc1; X1 = O=C(CCC[*:2])[*:1]
# Tests used:
# [1] = Trial 000015 Part 2: pharmacokinetics after multiple intranasal administrations; type: in vivo, human; conditions: for Cmax / Tmax / AUC(0-t) / half-life: female, human, plasma
# Text: The trial was divided into three parts:
# Part 2. Ascending multiple i.n. doses.
# [2] = in vivo
# [3] = Trial 000015 Part 3: pharmacokinetics, single intranasal and single intravenous cross-over; conditions: female, human, plasma; for Tmax: tmax Mean (SD); for bioavailability: 400 μg i.n. vs 20 μg i.v.
# Method: Open-label cross-over single i.n. and single i.v. dose in 6 healthy women. The doses investigated were 20 μg as an i.v. infusion over 25 minutes, and 400 μg as a single i.n. dose.
# (§1) The intranasal dose was 400 μg (4×140 μl, the same as the highest dose in Part 1), the i.v. dose was 20 μg infused in 2 mL over 25 minutes.
# The intravenous dose and infusion rate were determined from the intranasal pharmacokinetic data in Part 1.
# healthy women [4] = conditions: in vivo
# Method: The first clinical trial in human, Trial 000015, was a double-blind, placebo-controlled, single dose, within dose panel randomised, sequential dose escalating study. The trial was divided into three parts:
# Part 1. Ascending single i.n. doses. There were 7 dose panels with 8 healthy women in each dose panel (6 active, 2 placebo). The doses investigated were 5 μg, 15 μg, 50 μg, 100 μg, 200 μg, 300 μg, and 400 μg.
# Seven dose levels were investigated: 5, 15, 50, 100, 200, 300, and 400 μg. Each of the doses were administered as a nasal spray based on one or multiple puffs per nostril.
# Part 3. Open-label cross-over single i.n. and single i.v. dose in 6 healthy women. The doses investigated were 20 μg as an i.v. infusion over 25 minutes, and 400 μg as a single i.n. dose.
# as §1
# healthy women [5] = conditions: in vivo; remark: listed apart in the source
# [6] = 16 i.n. administrations over 48 hours
smiles,measurement,setting,value
"CC[C@H](C)[C@@H]1NC(=O)[C@H](Cc2ccc(O)cc2)NC(=O)CCCSC[C@@H](C(=O)N(CC(=O)N[C@@H](CC(C)C)C(=O)NCC(N)=O)Cc2ccc(F)cc2)NC(=O)[C@H](CC(N)=O)NC(=O)[C@H](CCC(N)=O)NC1=O [merotocin, Glycinamide, N-(4-mercapto-1-oxobutyl)-L-tyrosyl-L-isoleucyl-Lglutaminyl-L-asparaginyl-L-cysteinyl-N-[(4-fluorophenyl)methyl]glycyl-L-leucyl-, cyclic (1→5)-thioether] (YIQNC[N(4-F-Bzl)Gly]LG-NH2; linker N-5 via X1)",accumulation,[1]; [6],no indications of relevant accumulation
same,pre-dose concentrations,[1]; [6],falling constantly below the LLOQ
same,Cmax,"[1]; inhaled or intranasal, 50 ug, multiple i.n. doses every 3 hours, 50 μg, Dose No. 1, read-out: Cmax Geom. mean (% CV)",0.0275 ng/mL
same,Cmax,"[1]; inhaled or intranasal, 50 ug, multiple i.n. doses every 3 hours, 50 μg, Dose No. 1, read-out: Cmax Median",0.0307 ng/mL
same,Tmax,"[1]; inhaled or intranasal, 50 ug, multiple i.n. doses every 3 hours, 50 μg, Dose No. 1, read-out: tmax Mean (SD)",13.8 min
same,Cmax,"[1]; inhaled or intranasal, 50 ug, multiple i.n. doses every 3 hours, 50 μg, Dose No. 2, read-out: Cmax Median",0.0302 ng/mL
same,Cmax,"[1]; inhaled or intranasal, 50 ug, multiple i.n. doses every 3 hours, 50 μg, Dose No. 16, read-out: Cmax Median",0.0266 ng/mL
same,Tmax,"[1]; inhaled or intranasal, 50 ug, multiple i.n. doses every 3 hours, 50 μg, Dose No. 16, read-out: tmax Mean (SD)",20.4 min
same,AUC(0-t),"[1]; inhaled or intranasal, 200 ug, multiple i.n. doses every 3 hours, 200 μg, Dose No. 1, read-out: AUCt Geom. mean (% CV)",0.0804 ng·h/mL
same,AUC(0-t),"[1]; inhaled or intranasal, 200 ug, multiple i.n. doses every 3 hours, 200 μg, Dose No. 1, read-out: AUCt Median",0.0876 ng·h/mL
same,Cmax,"[1]; inhaled or intranasal, 200 ug, multiple i.n. doses every 3 hours, 200 μg, Dose No. 1, read-out: Cmax Geom. mean (% CV)",0.124 ng/mL
same,Cmax,"[1]; inhaled or intranasal, 200 ug, multiple i.n. doses every 3 hours, 200 μg, Dose No. 1, read-out: Cmax Median",0.125 ng/mL
same,Tmax,"[1]; inhaled or intranasal, 200 ug, multiple i.n. doses every 3 hours, 200 μg, Dose No. 1, read-out: tmax Mean (SD)",10.8 min
same,AUC(0-t),"[1]; inhaled or intranasal, 200 ug, multiple i.n. doses every 3 hours, 200 μg, Dose No. 2, read-out: AUCt Geom. mean (% CV)",0.0752 ng·h/mL
same,AUC(0-t),"[1]; inhaled or intranasal, 200 ug, multiple i.n. doses every 3 hours, 200 μg, Dose No. 2, read-out: AUCt Median",0.0706 ng·h/mL
same,Cmax,"[1]; inhaled or intranasal, 200 ug, multiple i.n. doses every 3 hours, 200 μg, Dose No. 2, read-out: Cmax Geom. mean (% CV)",0.115 ng/mL
same,Cmax,"[1]; inhaled or intranasal, 200 ug, multiple i.n. doses every 3 hours, 200 μg, Dose No. 2, read-out: Cmax Median",0.118 ng/mL
same,half-life,"[1]; inhaled or intranasal, 200 ug, multiple i.n. doses every 3 hours, 200 μg, Dose No. 2, read-out: t1/2 Harmonic mean (converted)",26.4 min
same,Tmax,"[1]; inhaled or intranasal, 200 ug, multiple i.n. doses every 3 hours, 200 μg, Dose No. 2, read-out: tmax Mean (SD)",16.8 min
same,AUC(0-t),"[1]; inhaled or intranasal, 200 ug, multiple i.n. doses every 3 hours, 200 μg, Dose No. 16, read-out: AUCt Geom. mean (% CV)",0.16 ng·h/mL
same,AUC(0-t),"[1]; inhaled or intranasal, 200 ug, multiple i.n. doses every 3 hours, 200 μg, Dose No. 16, read-out: AUCt Median",0.147 ng·h/mL
same,Cmax,"[1]; inhaled or intranasal, 200 ug, multiple i.n. doses every 3 hours, 200 μg, Dose No. 16, read-out: Cmax Geom. mean (% CV)",0.218 ng/mL
same,Cmax,"[1]; inhaled or intranasal, 200 ug, multiple i.n. doses every 3 hours, 200 μg, Dose No. 16, read-out: Cmax Median",0.225 ng/mL
same,half-life,"[1]; inhaled or intranasal, 200 ug, multiple i.n. doses every 3 hours, 200 μg, Dose No. 16, read-out: t1/2 Harmonic mean (converted)",30.6 min
same,Tmax,"[1]; inhaled or intranasal, 200 ug, multiple i.n. doses every 3 hours, 200 μg, Dose No. 16, read-out: tmax Mean (SD)",18.6 min
same,AUC(0-t),"[1]; inhaled or intranasal, 400 ug, multiple i.n. doses every 3 hours, 400 μg, Dose No. 1, read-out: AUCt Geom. mean (% CV)",0.0771 ng·h/mL
same,AUC(0-t),"[1]; inhaled or intranasal, 400 ug, multiple i.n. doses every 3 hours, 400 μg, Dose No. 1, read-out: AUCt Median",0.0702 ng·h/mL
same,Cmax,"[1]; inhaled or intranasal, 400 ug, multiple i.n. doses every 3 hours, 400 μg, Dose No. 1, read-out: Cmax Geom. mean (% CV)",0.156 ng/mL
same,Cmax,"[1]; inhaled or intranasal, 400 ug, multiple i.n. doses every 3 hours, 400 μg, Dose No. 1, read-out: Cmax Median",0.136 ng/mL
same,half-life,"[1]; inhaled or intranasal, 400 ug, multiple i.n. doses every 3 hours, 400 μg, Dose No. 1, read-out: t1/2 Harmonic mean (converted)",21 min
same,AUC(0-t),"[1]; inhaled or intranasal, 400 ug, multiple i.n. doses every 3 hours, 400 μg, Dose No. 2, read-out: AUCt Geom. mean (% CV)",0.0888 ng·h/mL
same,AUC(0-t),"[1]; inhaled or intranasal, 400 ug, multiple i.n. doses every 3 hours, 400 μg, Dose No. 2, read-out: AUCt Median",0.142 ng·h/mL
same,Cmax,"[1]; inhaled or intranasal, 400 ug, multiple i.n. doses every 3 hours, 400 μg, Dose No. 2, read-out: Cmax Geom. mean (% CV)",0.169 ng/mL
same,Cmax,"[1]; inhaled or intranasal, 400 ug, multiple i.n. doses every 3 hours, 400 μg, Dose No. 2, read-out: Cmax Median",0.195 ng/mL
same,half-life,"[1]; inhaled or intranasal, 400 ug, multiple i.n. doses every 3 hours, 400 μg, Dose No. 2, read-out: t1/2 Harmonic mean (converted)",23.4 min
same,Tmax,"[1]; inhaled or intranasal, 400 ug, multiple i.n. doses every 3 hours, 400 μg, Dose No. 2, read-out: tmax Mean (SD)",9.6 min
same,Cmax,"[1]; inhaled or intranasal, 400 ug, multiple i.n. doses every 3 hours, 400 μg, Dose No. 16, read-out: Cmax Geom. mean (% CV)",0.18 ng/mL
same,Cmax,"[1]; inhaled or intranasal, 400 ug, multiple i.n. doses every 3 hours, 400 μg, Dose No. 16, read-out: Cmax Median",0.192 ng/mL
same,half-life,"[1]; inhaled or intranasal, 400 ug, multiple i.n. doses every 3 hours, 400 μg, Dose No. 16, read-out: t1/2 Median (converted)",39 min
same,Tmax,"[1]; inhaled or intranasal, 400 ug, multiple i.n. doses every 3 hours, 400 μg, Dose No. 16, read-out: tmax Mean (SD)",18 min
same,Tmax,"[1]; other: intranasal, 50 ug, multiple i.n. doses every 3 hours, 50 μg, Dose No. 2, read-out: tmax Mean (SD)",20.4 min
same,Cmax,"[1]; other: intranasal, 50 ug, multiple i.n. doses every 3 hours, 50 μg, Dose No. 16, read-out: Cmax Geom. mean (% CV)",0.0236 ng/mL
same,Tmax,"[1]; other: intranasal, 400 ug, multiple i.n. doses every 3 hours, 400 μg, Dose No. 1, read-out: tmax Mean (SD)",6.6 min
same,AUC(0-t),"[1]; other: intranasal, 400 ug, multiple i.n. doses every 3 hours, 400 μg, Dose No. 16, read-out: AUCt Geom. mean (% CV)",0.112 ng·h/mL
same,AUC(0-t),"[1]; other: intranasal, 400 ug, multiple i.n. doses every 3 hours, 400 μg, Dose No. 16, read-out: AUCt Median",0.112 ng·h/mL
same,half-life,"[1]; other: intranasal, 400 ug, multiple i.n. doses every 3 hours, 400 μg, Dose No. 16, read-out: t1/2 Harmonic mean (converted)",33.6 min
same,half-life,"[1]; other: intranasal, multiple i.n. doses, all dose groups, read-out: t1/2",25 to 35 min
same,Tmax,"[1]; other: intranasal, multiple i.n. doses, all dose groups, read-out: tmax",12 to 15 min
same,metabolites of merotocin in plasma or urine samples,[2],No metabolites of merotocin could be detected
same,AUC(0-t),"[3]; inhaled or intranasal, 400 ug, AUCt Geom. mean (% CV), cross-over, 400 μg i.n. single dose, N = 6",0.083 ng·h/mL
same,AUC(0-t),"[3]; inhaled or intranasal, 400 ug, AUCt Median, cross-over, 400 μg i.n. single dose, N = 6",0.0728 ng·h/mL
same,half-life,"[3]; inhaled or intranasal, 400 ug, t1/2 Median, cross-over, 400 μg i.n. single dose, N = 6",36.6 min
same,Tmax,"[3]; inhaled or intranasal, 400 ug, cross-over, 400 μg i.n. single dose, N = 6",6.6 min
same,AUC(0-t),"[3]; iv, 20 ug, AUCt Geom. mean (% CV), cross-over, 20 μg i.v. infusion over 25 minutes, N = 6",0.146 ng·h/mL
same,clearance,"[3]; iv, 20 ug, CL Median, 20 μg i.v. infusion over 25 minutes, N = 6",2130 mL/min
same,Cmax,"[3]; iv, 20 μg, Cmax Geom. mean (% CV), cross-over, 20 μg i.v. infusion over 25 minutes, N = 6",0.463 ng/mL
same,Cmax,"[3]; iv, 20 ug, Cmax Median, cross-over, 20 μg i.v. infusion over 25 minutes, N = 6",0.463 ng/mL
same,Vd,"[3]; iv, 20 ug, Vz Mean (SD), 20 μg i.v. infusion over 25 minutes, N = 6",37.5 L
same,Vd,"[3]; iv, 20 ug, Vz Median, 20 μg i.v. infusion over 25 minutes, N = 6",31.2 L
same,Cmax,"[3]; iv, 20 μg, mean Cmax, single i.v. infusion of 20 μg over 25 minutes",0.463 ng/mL
same,half-life,"[3]; iv, 20 ug, t1/2 Harmonic mean, cross-over, 20 μg i.v. infusion over 25 minutes, N = 6",10.2 min
same,half-life,"[3]; iv, 20 ug, t1/2 Median, cross-over, 20 μg i.v. infusion over 25 minutes, N = 6",10.8 min
same,Tmax,"[3]; iv, 20 ug, cross-over, 20 μg i.v. infusion over 25 minutes, N = 6",21.6 min
same,Cmax,"[3]; other: intranasal, 400 ug, Cmax Geom. mean (% CV), cross-over, 400 μg i.n. single dose, N = 6",0.151 ng/mL
same,Cmax,"[3]; other: intranasal, 400 ug, Cmax Median, cross-over, 400 μg i.n. single dose, N = 6",0.156 ng/mL
same,bioavailability,"[3]; other: intranasal, 400 μg, F Median, N = 6",3.4%
same,bioavailability,"[3]; other: intranasal, 400 μg, bioavailability (range)",2.2 to 6.2%
same,Cmax,"[3]; other: intranasal, 400 μg, mean Cmax, single dose i.n. administration, highest dose group",0.151 ng/mL
same,Dry mouth: subjects reporting,healthy women [4],3 subjects
same,intensity of all adverse events,healthy women [4],mild
same,safety (key results),healthy women [4],No safety
same,ECG and safety laboratory parameters,healthy women [5],not affected to any measurable extent
